“Also recorded” adds a separate entry of the source.
Tests used:
CYP 2C9 = CYP 2C9 (Homo sapiens, UniProt P11712); assay: CYP450 inhibition; type: in vitro ADME
CYP 2B6 = CYP 2B6 (Homo sapiens, UniProt P20813); assay: CYP450 inhibition; type: in vitro ADME
CYP 2C19 = CYP 2C19 (Homo sapiens, UniProt P33261); assay: CYP450 inhibition; type: in vitro ADME
CYP 2C8 = CYP 2C8 (Homo sapiens, UniProt P10632); assay: CYP450 inhibition; type: in vitro ADME
CYP450 = assay: time-dependent CYP450 inhibition; type: in vitro ADME; conditions: result in words
[1] = test system: mouse native tissue layer V medial prefrontal cortex (mPFC); assay: electrophysiology (fEPSP, LTD) in layer V medial prefrontal cortex; conditions: 10 μM
Source text: Based on our previous experience, ,− , PAM 7 is expected to display robust pro-cognitive efficacy and maintain activity dependence of prefrontal cortical (PFC) function.

[2] = IV/PO pharmacokinetics (rat); type: in vivo; conditions: Rat (SD)
multispecies PK, summary = type: in vivo; conditions: rat, dog, NHP, plasma, across nonclinical species
mice = assay: modified Irwin neurological test battery; type: in vivo, mouse; conditions: result in words
Procedure: To assess peripheral cholinergic toxicity, a modified Irwin neurological battery was performed to score autonomic or somatosensory side effects (Figure ).

4 strain = assay: AMES assay (4 strain, with and without S9); type: cell-based
3A5 = 3A5 (Homo sapiens, UniProt P20815); assay: CYP450 phenotyping, recombinant enzymes; type: in vitro ADME; conditions: 3A5, panel of eight recombinant enzymes
2B6 = assay: CYP450 induction in human hepatocytes (three donors); type: cell-based; conditions: 10 μM, human hepatocytes from three donors
3A4 = assay: CYP induction repeated at a different CRO (mRNA and protein); type: cell-based; conditions: result in words
Adrenergic α1D = Adrenergic α1D (Homo sapiens, UniProt P25100); assay: Eurofins radioligand binding
Adrenergic β2 = Adrenergic β2 (Homo sapiens, UniProt P07550); assay: Eurofins radioligand binding
Androgen (Testosterone) = Androgen (Testosterone) (Homo sapiens, UniProt P10275); assay: Eurofins radioligand binding
Bradykinin B2 = Bradykinin B2 (Homo sapiens, UniProt P30411); assay: Eurofins radioligand binding
[3] = test system: Calcium Channel L-Type, Dihydropyridine; assay: Eurofins radioligand binding; conditions: Rat
Calcium Channel N-Type = Calcium Channel N-Type (Rattus norvegicus, UniProt Q02294); assay: Eurofins radioligand binding
Dopamine D3 = Dopamine D3 (Homo sapiens, UniProt P35462); assay: Eurofins radioligand binding
Endothelin ETA = Endothelin ETA (Homo sapiens, UniProt P25101); assay: Eurofins radioligand binding
[4] = molecular target: Epidermal Growth Factor (EGF) (Homo sapiens, UniProt P00533); assay: Eurofins radioligand binding
[5] = test system: Glutamate, NMDA, Phencyclidine; assay: Eurofins radioligand binding; conditions: Rat
Histamine H1 = Histamine H1 (Homo sapiens, UniProt P35367); assay: Eurofins radioligand binding
Histamine H2 = Histamine H2 (Homo sapiens, UniProt P25021); assay: Eurofins radioligand binding
Histamine H3 = Histamine H3 (Homo sapiens, UniProt Q9Y5N1); assay: Eurofins radioligand binding
Imidazoline I2, Central = assay: Eurofins radioligand binding; conditions: Rat
Neuropeptide Y Y1 = Neuropeptide Y Y1 (Homo sapiens, UniProt P25929); assay: Eurofins radioligand binding
Neuropeptide Y Y2 = Neuropeptide Y Y2 (Homo sapiens, UniProt P49146); assay: Eurofins radioligand binding
[6] = molecular target: Nicotinic Acetylcholine α1, Bungarotoxin (Homo sapiens, UniProt P02708+P07510+Q07001); assay: Eurofins radioligand binding; conditions: read-out: % Inhibition at 10 µM
Phorbol Ester = assay: Eurofins radioligand binding; conditions: Mouse
[7] = molecular target: Platelet Activating Factor (PAF) (Homo sapiens, UniProt P25105); assay: Eurofins radioligand binding
Prostanoid EP4 = Prostanoid EP4 (Homo sapiens, UniProt P35408); assay: Eurofins radioligand binding
Purinergic P2X = assay: Eurofins radioligand binding; conditions: Rat
[8] = test system: Purinergic P2Y, Non-Selective; assay: Eurofins radioligand binding; conditions: Rat
Rolipram = assay: Eurofins radioligand binding; conditions: Rat
Serotonin (5-HT1A) = Serotonin (5-HT1A) (Homo sapiens, UniProt P08908); assay: Eurofins radioligand binding
Sigma σ1 = Sigma σ1 (Homo sapiens, UniProt Q99720); assay: Eurofins radioligand binding
Sodium Channel, Site 2 = assay: Eurofins radioligand binding; conditions: Site 2, Rat
Tachykinin NK1 = Tachykinin NK1 (Homo sapiens, UniProt P25103); assay: Eurofins radioligand binding
[9] = molecular target: Transporter, Dopamine (DAT) (Homo sapiens, UniProt Q01959); assay: Eurofins radioligand binding
[10] = result in words; cited from earlier work

Sequence of Adrenergic β2 (P07550 whole entry): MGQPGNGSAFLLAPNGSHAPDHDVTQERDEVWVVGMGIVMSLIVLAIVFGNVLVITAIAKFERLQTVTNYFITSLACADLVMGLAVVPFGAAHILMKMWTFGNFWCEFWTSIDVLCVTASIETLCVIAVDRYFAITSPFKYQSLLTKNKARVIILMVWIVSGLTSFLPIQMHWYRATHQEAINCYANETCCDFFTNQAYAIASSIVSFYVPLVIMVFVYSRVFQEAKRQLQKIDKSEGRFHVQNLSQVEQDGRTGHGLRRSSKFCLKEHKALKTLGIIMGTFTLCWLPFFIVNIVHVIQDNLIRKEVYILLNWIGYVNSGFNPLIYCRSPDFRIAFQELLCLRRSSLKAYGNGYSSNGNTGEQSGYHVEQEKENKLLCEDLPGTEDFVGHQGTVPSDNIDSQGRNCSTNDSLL
Sequence of Dopamine D3 (P35462 whole entry): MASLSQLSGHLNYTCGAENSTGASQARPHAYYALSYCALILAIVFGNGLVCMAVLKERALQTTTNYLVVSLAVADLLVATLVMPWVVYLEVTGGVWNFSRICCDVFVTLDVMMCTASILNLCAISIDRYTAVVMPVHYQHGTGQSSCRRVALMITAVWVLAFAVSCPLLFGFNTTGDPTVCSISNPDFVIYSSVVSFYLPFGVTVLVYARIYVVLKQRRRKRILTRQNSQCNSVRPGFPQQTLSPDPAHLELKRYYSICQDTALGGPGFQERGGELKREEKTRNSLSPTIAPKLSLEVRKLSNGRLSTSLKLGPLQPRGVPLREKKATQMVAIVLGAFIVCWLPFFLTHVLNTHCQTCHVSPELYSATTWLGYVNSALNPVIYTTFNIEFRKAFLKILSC
Sequence of Tachykinin NK1 (P25103 whole entry): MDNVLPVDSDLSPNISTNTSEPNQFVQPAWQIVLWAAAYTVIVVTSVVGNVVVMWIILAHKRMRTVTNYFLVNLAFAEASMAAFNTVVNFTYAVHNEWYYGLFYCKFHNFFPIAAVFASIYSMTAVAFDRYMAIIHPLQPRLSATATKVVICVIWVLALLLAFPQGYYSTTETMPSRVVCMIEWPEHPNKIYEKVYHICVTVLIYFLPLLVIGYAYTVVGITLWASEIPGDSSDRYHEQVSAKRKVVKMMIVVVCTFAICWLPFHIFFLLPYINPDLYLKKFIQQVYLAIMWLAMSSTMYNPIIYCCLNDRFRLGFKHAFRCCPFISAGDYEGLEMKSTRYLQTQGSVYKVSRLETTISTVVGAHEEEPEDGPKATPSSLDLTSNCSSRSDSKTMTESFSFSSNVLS
Sequence of 3A5 (P20815 whole entry): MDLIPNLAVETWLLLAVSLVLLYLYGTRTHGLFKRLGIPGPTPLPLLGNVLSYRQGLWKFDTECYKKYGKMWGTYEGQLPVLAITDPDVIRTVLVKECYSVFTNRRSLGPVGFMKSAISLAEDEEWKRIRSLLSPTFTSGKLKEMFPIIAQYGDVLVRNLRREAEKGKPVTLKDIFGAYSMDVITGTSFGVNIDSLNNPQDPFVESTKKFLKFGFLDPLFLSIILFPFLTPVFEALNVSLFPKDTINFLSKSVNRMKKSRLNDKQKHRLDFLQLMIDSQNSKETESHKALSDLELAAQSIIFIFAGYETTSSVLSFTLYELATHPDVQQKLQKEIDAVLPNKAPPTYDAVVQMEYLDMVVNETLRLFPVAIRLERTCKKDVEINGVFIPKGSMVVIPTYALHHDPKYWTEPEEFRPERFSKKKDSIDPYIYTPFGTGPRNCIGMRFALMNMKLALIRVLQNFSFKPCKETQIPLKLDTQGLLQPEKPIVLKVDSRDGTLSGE
Sequence of Calcium Channel N-Type (Q02294 whole entry): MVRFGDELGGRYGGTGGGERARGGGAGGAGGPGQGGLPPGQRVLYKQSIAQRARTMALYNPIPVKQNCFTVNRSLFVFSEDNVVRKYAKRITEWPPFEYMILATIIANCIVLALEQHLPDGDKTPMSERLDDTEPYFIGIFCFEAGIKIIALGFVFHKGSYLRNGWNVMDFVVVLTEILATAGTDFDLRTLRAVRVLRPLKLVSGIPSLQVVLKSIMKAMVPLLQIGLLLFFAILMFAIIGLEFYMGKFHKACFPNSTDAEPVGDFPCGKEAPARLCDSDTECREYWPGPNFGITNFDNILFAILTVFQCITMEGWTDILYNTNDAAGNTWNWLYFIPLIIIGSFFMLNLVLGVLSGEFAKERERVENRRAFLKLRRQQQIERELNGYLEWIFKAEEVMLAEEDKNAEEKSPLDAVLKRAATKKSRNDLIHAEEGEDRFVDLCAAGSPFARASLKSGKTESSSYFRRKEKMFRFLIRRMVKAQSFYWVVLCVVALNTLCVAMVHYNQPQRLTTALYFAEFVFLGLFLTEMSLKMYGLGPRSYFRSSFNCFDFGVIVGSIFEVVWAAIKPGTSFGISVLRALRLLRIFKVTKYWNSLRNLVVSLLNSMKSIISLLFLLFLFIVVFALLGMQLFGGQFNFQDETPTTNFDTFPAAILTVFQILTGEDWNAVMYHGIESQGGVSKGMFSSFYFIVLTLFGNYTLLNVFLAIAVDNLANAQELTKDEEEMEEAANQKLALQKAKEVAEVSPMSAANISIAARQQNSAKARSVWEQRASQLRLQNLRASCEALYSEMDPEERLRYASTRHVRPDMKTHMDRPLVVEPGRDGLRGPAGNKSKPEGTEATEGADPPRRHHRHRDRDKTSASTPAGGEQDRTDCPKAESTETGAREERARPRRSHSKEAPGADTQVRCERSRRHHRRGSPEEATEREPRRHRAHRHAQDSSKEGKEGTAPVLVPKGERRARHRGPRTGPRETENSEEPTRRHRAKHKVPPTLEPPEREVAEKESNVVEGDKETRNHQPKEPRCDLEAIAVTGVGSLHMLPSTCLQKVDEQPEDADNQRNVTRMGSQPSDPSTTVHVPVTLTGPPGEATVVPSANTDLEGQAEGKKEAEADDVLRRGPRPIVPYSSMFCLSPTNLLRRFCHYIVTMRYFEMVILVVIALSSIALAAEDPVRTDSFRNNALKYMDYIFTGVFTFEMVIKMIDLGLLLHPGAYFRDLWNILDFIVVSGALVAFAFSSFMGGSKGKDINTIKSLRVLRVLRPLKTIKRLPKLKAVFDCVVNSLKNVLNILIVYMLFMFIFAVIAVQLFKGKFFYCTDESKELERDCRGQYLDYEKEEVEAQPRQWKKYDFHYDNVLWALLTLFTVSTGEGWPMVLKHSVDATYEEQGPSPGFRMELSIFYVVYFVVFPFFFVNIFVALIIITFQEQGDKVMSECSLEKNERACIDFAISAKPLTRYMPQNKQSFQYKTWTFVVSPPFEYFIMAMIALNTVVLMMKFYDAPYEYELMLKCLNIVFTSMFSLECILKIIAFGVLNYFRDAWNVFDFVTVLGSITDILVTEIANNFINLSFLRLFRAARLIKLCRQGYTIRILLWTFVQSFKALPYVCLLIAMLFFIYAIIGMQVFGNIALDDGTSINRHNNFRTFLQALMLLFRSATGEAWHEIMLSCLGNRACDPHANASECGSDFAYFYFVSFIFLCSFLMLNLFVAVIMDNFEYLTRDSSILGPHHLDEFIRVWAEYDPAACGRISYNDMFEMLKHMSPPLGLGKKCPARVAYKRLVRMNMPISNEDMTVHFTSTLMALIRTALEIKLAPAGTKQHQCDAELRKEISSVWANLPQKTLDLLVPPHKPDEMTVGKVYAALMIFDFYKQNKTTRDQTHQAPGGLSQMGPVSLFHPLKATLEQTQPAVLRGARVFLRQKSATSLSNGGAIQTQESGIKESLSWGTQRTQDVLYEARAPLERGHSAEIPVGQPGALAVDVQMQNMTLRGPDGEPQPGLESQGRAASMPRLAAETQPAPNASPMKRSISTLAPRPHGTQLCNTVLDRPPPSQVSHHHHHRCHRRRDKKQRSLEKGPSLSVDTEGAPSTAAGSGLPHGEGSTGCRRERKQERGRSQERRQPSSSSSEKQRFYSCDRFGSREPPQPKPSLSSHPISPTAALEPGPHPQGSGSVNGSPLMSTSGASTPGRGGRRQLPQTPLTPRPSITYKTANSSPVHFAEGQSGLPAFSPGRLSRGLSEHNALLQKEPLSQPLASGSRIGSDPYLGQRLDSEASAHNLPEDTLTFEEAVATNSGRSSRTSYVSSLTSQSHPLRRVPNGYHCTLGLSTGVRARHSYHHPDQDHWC
Sequence of Histamine H1 (P35367 whole entry): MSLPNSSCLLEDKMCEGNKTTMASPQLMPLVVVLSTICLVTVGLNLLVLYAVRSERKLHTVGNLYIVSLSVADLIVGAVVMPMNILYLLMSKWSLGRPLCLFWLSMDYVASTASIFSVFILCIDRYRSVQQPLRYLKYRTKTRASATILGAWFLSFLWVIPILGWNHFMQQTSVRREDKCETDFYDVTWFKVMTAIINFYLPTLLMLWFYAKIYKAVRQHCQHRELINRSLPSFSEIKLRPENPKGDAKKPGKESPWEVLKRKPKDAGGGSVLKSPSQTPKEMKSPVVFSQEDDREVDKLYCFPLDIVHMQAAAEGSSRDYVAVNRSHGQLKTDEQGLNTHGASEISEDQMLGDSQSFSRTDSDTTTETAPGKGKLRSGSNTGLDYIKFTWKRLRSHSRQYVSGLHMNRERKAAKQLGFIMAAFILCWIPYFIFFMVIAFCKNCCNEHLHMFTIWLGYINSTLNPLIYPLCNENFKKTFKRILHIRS
Sequence of CYP 2C9 (P11712 whole entry): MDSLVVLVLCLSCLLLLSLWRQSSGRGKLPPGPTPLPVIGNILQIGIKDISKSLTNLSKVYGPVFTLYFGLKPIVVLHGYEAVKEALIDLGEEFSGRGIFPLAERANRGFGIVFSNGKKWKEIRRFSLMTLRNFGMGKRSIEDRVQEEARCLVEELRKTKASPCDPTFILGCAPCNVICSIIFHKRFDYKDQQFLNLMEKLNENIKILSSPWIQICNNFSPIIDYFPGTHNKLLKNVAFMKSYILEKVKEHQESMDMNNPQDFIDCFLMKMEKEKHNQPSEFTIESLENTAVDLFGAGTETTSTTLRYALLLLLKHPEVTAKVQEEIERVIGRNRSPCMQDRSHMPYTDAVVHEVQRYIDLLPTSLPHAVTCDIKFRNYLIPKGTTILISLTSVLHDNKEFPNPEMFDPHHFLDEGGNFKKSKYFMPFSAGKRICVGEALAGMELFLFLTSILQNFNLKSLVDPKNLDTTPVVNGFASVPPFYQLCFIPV

For `Cn1cc2c(-c3cc(F)c(CN4Cc5ncccc5C4=O)c(F)c3)ccc(C(C)(C)O)c2n1` [compound 7], the IC50 (CYP 2C9) was > 30 µM, the IC50 (CYP 2B6) was > 30 µM and the IC50 (CYP 2C19) was > 30 µM. The IC50 (CYP 2C8) was > 30 µM, the “time-dependent CYP450 inhibition” value (CYP450) was “no evidence of time-dependent inhibition; also recorded: no CYP450 inhibition or time-dependent CYP450 inhibition liabilities” and the PPR [1] was 112%. The “field excitatory postsynaptic potentials (fEPSPs), % baseline” value [1] was 86 % baseline, the “F (%) po” value ([2]; 10 mg/kg po, 10 mg/kg) was >100% and the clearance ([2]; Sprague-Dawley, plasma, 1 mg/kg iv, read-out: CLp) was 5.8 mL/min/kg. The half-life ([2]; Sprague-Dawley, plasma, 1 mg/kg iv, read-out: Elimination t1/2 (converted)) was 3.7 h, the Vd ([2]; Sprague-Dawley, plasma, 1 mg/kg iv, read-out: Vss) was 1.3 L/kg and the AUC ([2]; Sprague-Dawley, plasma, 10 mg/kg po) was 110 µM·h. For the same compound, the Cmax ([2]; plasma, 10 mg/kg po) was 15.9 µM, the Tmax ([2]; plasma, 10 mg/kg po) was 1 h and the bioavailability (multispecies PK, summary; read-out: %F, multispecies) was > 65%. The clearance (multispecies PK, summary; read-out: Clp s, multispecies) was < 10 mL/min/kg, the “adverse effects / SLUDGE in modified Irwin battery” value (from here on “adverse effects / SLUDGE”) (mice; 56.6 mg/kg IP, 6 h time course) was “minimal adverse effects or SLUDGE were noted” and the “adverse effects / SLUDGE” value (mice; 56.6 mg/kg IP, 6 h time course, listed as VU6052254) was “minimal adverse cholinergic events (SLUDGE) were noted”. The “adverse effects / SLUDGE” value (mice; 100 mg/kg IP) was “more pronounced adverse effects seen”, the “adverse effects / SLUDGE” value (mice; 100 mg/kg IP, listed as VU6052254) was “adverse cholinergic events (SLUDGE) were noted” and the AMES assay result (4 strain) was “negative”. For the same compound, the “contribution to metabolism, CYP450 phenotyping” value (3A5) was 3.2%, the 2B6 induction (2B6) was 11.5% and the “3A4 induction, mRNA and protein” value (3A4) was “not to be an inducer of 3A4”. For the same compound, the inhibition at 10 µM (Adrenergic α1D) was 11%, the inhibition at 10 µM (Adrenergic β2) was -4% and the inhibition at 10 µM (Androgen (Testosterone)) was -4%. For the same compound, the inhibition at 10 µM (Bradykinin B2) was -18%, the “% Inhibition at 10 µM” value [3] was 59% and the inhibition at 10 µM (Calcium Channel N-Type) was -11%. It also gave an inhibition at 10 µM (Dopamine D3) of -10%, an inhibition at 10 µM (Endothelin ETA) of 11% and an inhibition at 10 µM [4] of -14%. The “% Inhibition at 10 µM” value [5] was -1%, the inhibition at 10 µM (Histamine H1) was 4% and the inhibition at 10 µM (Histamine H2) was 2%. The inhibition at 10 µM (Histamine H3) was -11%, the “% Inhibition at 10 µM” value (Imidazoline I2, Central) was 64% and the inhibition at 10 µM (Neuropeptide Y Y1) was -10%. For the same compound, the inhibition at 10 µM (Neuropeptide Y Y2) was -9%, the inhibition at 10 µM [6] was 2% and the “% Inhibition at 10 µM” value (Phorbol Ester) was 12%. The inhibition at 10 µM [7] was 1%, the inhibition at 10 µM (Prostanoid EP4) was 21% and the “% Inhibition at 10 µM” value (Purinergic P2X) was 4%. For the same compound, the “% Inhibition at 10 µM” value [8] was 21%, the “% Inhibition at 10 µM” value (Rolipram) was 61% and the inhibition at 10 µM (Serotonin (5-HT1A)) was 12%. For the same compound, the inhibition at 10 µM (Sigma σ1) was 6%, the “% Inhibition at 10 µM” value (Sodium Channel, Site 2) was 22% and the inhibition at 10 µM (Tachykinin NK1) was 4%. It also gave an inhibition at 10 µM [9] of 7%.

For `Cn1cc2c(-c3cc(F)c(CN4Cc5ncccc5C4=O)c(F)c3)cccc2n1` [compound 1, reference compound], the “cholinergic toxicity in Phase I SAD trial” value [10] is listed as “without any observed cholinergic toxicity”.

Reference: PMC12715762, “Discovery of VU6052254: A Novel, Potent M1 Positive Allosteric Modulator” (ACS Chemical Neuroscience, 2025)
